The text below walks through data of patent publication US20080027042A1, “Novel Aminopyridine Derivatives Having Aurora a Selective Inhibitory Action” (priority 2004, published 2008).

Structures can show the parent of a compound that is named as a salt.

In one assay the target is T1, Aurora A (Homo sapiens, UniProt O14965).
T1 construct: histidine tag (N); made in house; host or cells: Escherichia coli BL21-CodonPlus(DE3)-RIL
T1 sequence (O14965 1-403): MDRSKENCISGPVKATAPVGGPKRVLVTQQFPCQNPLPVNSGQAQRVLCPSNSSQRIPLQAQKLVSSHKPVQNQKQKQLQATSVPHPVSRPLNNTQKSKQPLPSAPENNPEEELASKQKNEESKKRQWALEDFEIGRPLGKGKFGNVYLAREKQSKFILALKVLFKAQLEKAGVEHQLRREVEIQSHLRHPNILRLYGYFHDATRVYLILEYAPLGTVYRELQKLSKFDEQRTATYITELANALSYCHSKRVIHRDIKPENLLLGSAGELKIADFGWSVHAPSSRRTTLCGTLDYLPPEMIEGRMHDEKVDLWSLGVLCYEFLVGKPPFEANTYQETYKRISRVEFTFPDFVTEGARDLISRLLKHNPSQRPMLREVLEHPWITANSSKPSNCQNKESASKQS
As to the kind of experiment: Aurora A inhibitory action (33P-ATP kinase assay, Kemptide substrate). Particulars: 20 μM ATP, 30° C., 20 minutes. In kind it is biochemical. The source says:
Aurora A Inhibitory Action
(1) Purification of Aurora A
cDNA of Aurora A having histidine tag fused at the amino terminal was integrated into an expression vector, which was then highly expressed in Escherichia coli BL2 1-CodonPlus(DE3)-RIL cells. The Escherichia coli cells were recovered and solubilized, and then the histidine-tagged Aurora A protein was adsorbed onto a nickel chelate column and eluted from the column with imidazole. The active fraction was desalted with a desalting column to give a pure enzyme.
(2) Measurement of Activity of Aurora A
For measurement of the activity of Aurora A, the substrate used was Kemptide (Lys-Arg-Arg-Ala-Ser-Lys-Gly) (SEQ.ID.NO.: 1), a synthetic peptide purchased from Sigma-Aldrich, Inc. [Certificate of analysis (Upstate, Inc.)].
Reaction was conducted by a partial modification of a method by Upstate, Inc. [Kinase Profiler™ Assay Protocols]. The amount of the reaction liquid was 21.1 μL, and the composition of the reaction buffer (R2 buffer) was 50 mM Tris-hydrochloride buffer (pH 7.4)/15 mM magnesium acetate/0.2 mM ethylenediamine-N,N,N′,N′-tetraacetate (EDTA). To this, purified Aurora A, 100 μM of a substrate peptide, 20 μM of unlabeled adenosine triphosphate (ATP) and 0.5 μCi of [γ-^33P] labeled ATP (2,500 Ci/mmole or more) were added, and the mixture was reacted at 30° C. for 20 minutes. Then, 10 μL of 350 mM phosphate buffer was added to the reaction system to stop the reaction. The substrate peptide was adsorbed on a P81 paper filter 96-well plate and then washed with 130 mM phosphate buffer for several times. The radiation activity of the peptide was measured with a liquid scintillation counter. The [γ-^33P] labeled ATP was purchased from Amersham Biosciences Co., Ltd.
(§1) The compound to be tested was added to the reaction system such that a dilution series of the compound in dimethylsulfoxide was first prepared, and 1.1 μL of this solution was added. A control was provided by adding 1.1 μL of DMSO to the reaction system.

A further assay deals with T2, Aurora B (Homo sapiens, UniProt Q96GD4).
T2 construct: histidine tag (N); made in house; host or cells: Escherichia coli BL21-CodonPlus(DE3)-RIL
T2 sequence (Q96GD4 whole entry): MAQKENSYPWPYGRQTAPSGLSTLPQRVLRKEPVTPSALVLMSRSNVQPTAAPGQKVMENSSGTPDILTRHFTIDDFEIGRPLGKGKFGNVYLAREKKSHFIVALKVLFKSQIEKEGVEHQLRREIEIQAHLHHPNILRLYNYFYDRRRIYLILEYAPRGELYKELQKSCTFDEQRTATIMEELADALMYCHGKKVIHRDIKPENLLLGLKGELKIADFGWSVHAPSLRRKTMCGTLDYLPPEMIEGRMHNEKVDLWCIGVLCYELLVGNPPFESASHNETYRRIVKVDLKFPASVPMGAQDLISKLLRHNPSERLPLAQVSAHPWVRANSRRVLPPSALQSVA
As to the kind of experiment: Aurora B inhibitory action (33P-ATP kinase assay, Kemptide substrate). It counts as biochemical. Particulars: 100 μM ATP, 30° C., 20 minutes.
Excerpt: Aurora B Inhibitory Action
(1) Purification of Aurora B
cDNA of Aurora B having histidine tag fused at the amino terminal was integrated into an expression vector, which was then highly expressed in Escherichia coli BL21-CodonPlus(DE3)-RIL cells. The Escherichia coli cells were recovered and solubilized, and then the histidine-tagged […] protein was adsorbed onto a nickel chelate column and eluted from the column with imidazole. The active fraction was desalted with a desalting column to give a pure enzyme.
(2) Measurement of Activity of Aurora B
For measurement of the activity of Aurora B, the substrate used was Kemptide (Lys-Arg-Arg-Ala-Ser-Lys-Gly) (SEQ.ED.NO.: 1), a synthetic peptide purchased from Sigma-Aldrich, Inc. [Certificate of analysis (Upstate, Inc.)].
Reaction was conducted by a partial modification of the method of activity measurement for Aurora A. The amount of the reaction liquid was 21.1 μL, and the composition of the reaction buffer (R2 buffer) was 50 mM Tris-hydrochloride buffer (pH 7.4)/15 mM magnesium acetate/0.2 mM ethylenediamine-N,N,N′,N′-tetraacetate (EDTA). To this, purified Aurora B, 100 μM of a substrate peptide, 100 μM of unlabeled adenosine triphosphate (ATP) and 1 μCi of [γ-^33P] labeled ATP (2,500 Ci/mmole or more) were added, and the mixture was reacted at 30° C. for 20 minutes. Then, 10 μL of 350 mM phosphate buffer was added to the reaction system to stop the reaction. The substrate peptide was adsorbed on a P81 paper filter 96-well plate and then washed with 130 mM phosphate buffer for several times. The radiation activity of the peptide was measured with a liquid scintillation counter. The [γ-^33P] labeled ATP was purchased from Amersham Biosciences Co., Ltd.
as §1

In the case of `C[C@@H]1CN(Cc2cccc(Nc3ncns3)n2)CCN1C(=O)c1ccccc1` [Example 33, 6-(((3R)-4-benzoyl-3-methylpiperazin-1-yl)methyl)-N-1,2,4-thiadiazol-5-ylpyridin-2-amine trifluoroacetate], the IC50 against Aurora A is 50 nM; on Aurora B it was 3000 nM.

On to `O=C(c1cnccn1)N1CCN(Cc2cccc(Nc3ncc(Cl)s3)n2)CC1` [Example 64, 6-((4-(pyrazin-2-ylcarbonyl)piperazin-1-yl)methyl)-N-(5-chlorothiazol-2-yl)pyridin-2-amine], for which the IC50 at Aurora A was 110 nM; against Aurora B, 2500 nM.

For the molecule `O=C(c1ccccc1)N1CCN(Cc2cccc(Nc3cc(C4CC4)[nH]n3)n2)CC1` [Example 31, 6-((4-benzoylpiperazin-1-yl)methyl)-N-(5-cyclopropyl-1H-pyrazol-3-yl)pyridin-2-amine], the IC50 at Aurora A stood at 37 nM; at Aurora B, 760 nM.

For the molecule `O=C(c1cccc(Cl)c1F)N1CCN(Cc2cccc(Nc3ncc(F)s3)n2)CC1` [Example 112, 6-((4-(3-chloro-2-fluorobenzoyl)piperazin-1-yl)methyl)-N-(5-fluorothiazol-2-yl)pyridin-2-amine], the IC50 on Aurora A was determined as 0.81 nM; against Aurora B it was 230 nM.

In the case of `O=C(c1cccc(C(F)(F)F)c1F)N1C[C@H]2C[C@@H]1CN2Cc1cncc(Nc2cc[nH]n2)n1` [Example 48, 6-(((1R,4R)-5-(2-fluoro-3-(trifluoromethyl)benzoyl)-2,5-diazabicyclo[2.2.1]hept-2-yl)methyl)-N-1H-pyrazol-3-ylpyrazin-2-amine], the figures for the IC50 against Aurora A and at Aurora B were 2.8 nM and 2900 nM, respectively.

Take `O=C(O)c1cc(CN2CCN(C(=O)c3cccc(Cl)c3F)CC2)nc(Nc2nccs2)c1` [Example 83, 2-((4-(3-chloro-2-fluorobenzoyl)piperazin-1-yl)methyl)-6-(thiazol-2-ylamino)isonicotinic acid]: the IC50 against Aurora A came to 0.64 nM; against Aurora B it was 800 nM.

Consider `O=C(c1cccc(Br)c1)N1CCN(Cc2cccc(Nc3ncns3)n2)CC1` [Example 38, 6-((4-(3-bromobenzoyl)piperazin-1-yl)methyl)-N-1,2,4-thiadiazol-5-ylpyridin-2-amine], for which the IC50 against Aurora A stood at 9.1 nM; against Aurora B it was 9500 nM.

Take `O=C(c1cccc(Cl)c1Cl)N1CCN(Cc2cccc(Nc3ncc(Cl)s3)n2)CC1` [Example 76, 6-((4-(2,3-dichlorobenzoyl)piperazin-1-yl)methyl)-N-(5-chlorothiazol-2-yl)pyridin-2-amine]: the IC50 at Aurora A worked out at 0.44 nM; against Aurora B, 47 nM.

On to `O=C(NCCO)c1cc(CN2CCN(C(=O)c3cccc(Cl)c3F)CC2)nc(Nc2nccs2)c1` [Example 88, 2-((4-(3-chloro-2-fluorobenzoyl)piperazin-1-yl)methyl)-N-(2-hydroxyethyl)-6-(thiazol-2-ylamino)isonicotinamide trifluoroacetate], for which the IC50 was determined as 0.72 nM against Aurora A and 1000 nM on Aurora B.

Turning to `CC(=O)Nc1cccc(C(=O)N2CCN(Cc3cccc(Nc4ncc(Cl)s4)n3)CC2)c1` [Example 72, 6-((4-(3-(acetylamino)benzoyl)piperazin-1-yl)methyl)-N-(5-chlorothiazol-2-yl)pyridin-2-amine], the IC50 amounted to 27 nM at Aurora A and 170 nM against Aurora B.

For `O=C(c1cccc(Cl)c1F)N1CCN(Cc2cc(Cn3ccnn3)cc(Nc3nccs3)n2)CC1` [Example 90, 6-((4-(3-chloro-2-fluorobenzoyl)piperazin-1-yl)methyl)-N-thiazol-2-yl-4-(1H-1,2,3-triazol-1-ylmethyl)pyridin-2-amine trifluoroacetate], the IC50 at Aurora A came out at 1.5 nM; at Aurora B it was 860 nM.

`O=C(c1cccc(Cl)c1F)N1CCN(Cc2cccc(Nc3cc[nH]n3)n2)CC1` [Example 16, 6-((4-(3-chloro-2-fluorobenzoyl)piperazin-1-yl)methyl)-N-1H-pyrazol-3-ylpyridin-2-amine]: the IC50 against Aurora A was determined as 1.8 nM; on Aurora B, 1300 nM.

As to `O=C(c1cccc(Cl)c1Cl)N1CCN(Cc2cncc(Nc3cc[nH]n3)n2)CC1` [Example 45, 6-((4-(2,3-dichlorobenzoyl)piperazin-1-yl)methyl)-N-1H-pyrazol-3-ylpyrazin-2-amine], the IC50 against Aurora A came out at 2.5 nM; against Aurora B, 4800 nM.

As for `N#Cc1cnc(Nc2cccc(CN3CCN(C(=O)c4cccc(Cl)c4F)CC3)n2)s1` [Example 43], the results for the IC50 against Aurora A and against Aurora B were 1.1 nM and 460 nM, respectively.

`CNC(=O)c1cc(CN2CCN(C(=O)c3cccc(Cl)c3F)CC2)nc(Nc2nccs2)c1` [Example 85, 2-((4-(3-chloro-2-fluorobenzoyl)piperazin-1-yl)methyl)-N-methyl-6-(thiazol-2-ylamino)isonicotinamide trifluoroacetate]: the IC50 against Aurora A is 1 nM; on Aurora B, 610 nM.

As for `Cn1ccc(C(=O)N2CCN(Cc3cccc(Nc4ncc(Cl)s4)n3)CC2)n1` [Example 69, 6-((4-((1-methyl-1H-pyrazol-3-yl)carbonyl)piperazin-1-yl)methyl)-N-(5-chlorothiazol-2-yl)pyridin-2-amine], the IC50 was found to be 32 nM against Aurora A and 920 nM against Aurora B.

In the case of `O=C(c1cccc(F)c1F)N1CCN(Cc2cc(N3CCOCC3)cc(Nc3nccs3)n2)CC1` [Example 103, 6-((4-(2,3-difluorobenzoyl)piperazin-1-yl)methyl)-4-morpholin-4-yl-N-thiazol-2-ylpyridin-2-amine], the IC50 turned out to be 0.76 nM on Aurora A and 250 nM against Aurora B.

Take `O=C(c1cccc(C(F)(F)F)c1F)N1CCN(Cc2cncc(Nc3ncns3)n2)CC1` [Example 57, 6-((4-(2-fluoro-(3-trifluoromethyl)benzoyl)piperazin-1-yl)methyl)-N-1,2,4-thiadiazol-5-ylpyrazin-2-amine]: the IC50 at Aurora A was determined as 15 nM; on Aurora B it was 28000 nM.

`O=C(c1cccc(Cl)c1F)N1CCN(Cc2cccc(Nc3ncns3)n2)CC1` [Example 32, 6-((4-(3-chloro-2-fluorobenzoyl)piperazin-1-yl)methyl)-N-1,2,4-thiadiazol-5-ylpyridin-2-amine]: the values for the IC50 on Aurora A and at Aurora B were 3.7 nM and 4800 nM, respectively.

For the molecule `Cc1cc(Nc2cccc(CN3CCN(C(=O)c4cccc(Cl)c4Cl)CC3)n2)n[nH]1` [Example 26, 6-((4-(2,3-dichlorobenzoyl)piperazin-1-yl)methyl)-N-(5-methyl-1H-pyrazol-3-yl)pyridin-2-amine trifluoroacetate], the IC50 at Aurora A turned out to be 1.1 nM; against Aurora B, 450 nM.

On to `O=C(c1ccnc(F)c1)N1CCN(Cc2cccc(Nc3ncc(Br)s3)n2)CC1` [Example 79, 6-((4-(2-fluoroisonicotinoyl)piperazin-1-yl)methyl)-N-(5-bromothiazol-2-yl)pyridin-2-amine], for which the IC50 at Aurora A was 26 nM; at Aurora B, 2200 nM.

The IC50 is the concentration that gives 50% inhibition.
